Reference: patent US4965280A, “Antifungal carbinols” (E. I. Du Pont de Nemours and Company, priority 1989, dated 1990)
In brackets after ≈: the same amount, converted by molar mass. Counter-ions that a name gives are not always drawn. Like-named read-outs stand apart in the source and are kept apart here.

Legend:
[1] = system: Aspergillus fumigatus ATCC 28214; assay: In vitro antifungal MIC, microtiter broth dilution; conditions: for MIC values, A. fumigatus: 30°, 24 hours; for MIC: Aspergillus fumigatus, ATCC28214, 24 h
[2] = system: Candida albicans ATCC 11651; assay: In vitro antifungal MIC, microtiter broth dilution; conditions: for MIC values, C. albicans: 30°, 24 hours; for MIC: Candida albicans, ATCC11651, 24 h
[3] = system: Candida albicans ATCC 11651; assay: In vivo systemic Candida infection in mice, primary assay; set-up: species or system Candida albicans; CF-1 female mice; conditions: for responders at 150 mg/kg / responders at 1 mg/kg/day: Candida albicans, read-out: % Survival
Description: The […] activity of test compounds is based on the percent (%) survival of infected animals receiving test or standard agent compared to that in an infected untreated group (Table 6). The in vivo assays are chronic systemic infections lethal to mice within 7 days post infection, [J. Barnes, et al. Lab Investigation, 49 460-467 (1963), and T. Rogers and E. Balish, Infection and Immunity, 14 33-38 (1976)].
Candida albicans ATCC 11651, from a frozen stock culture (10^9 organisms/ml) maintained at -70°, is diluted in saline to 1×10^7 organisms/ml and 0.2 ml inoculated intravenously (caudal vein) into 20.0 gm CF-1 female mice (Charles River).
Test compounds are routinely solubilized in 0.25% (w/v) methylcellulose (Methocel®) but for those compounds difficult to solubilize 10% (w/v) Emulophor® (EL620 GAF Corp.) is used. The standard antifungal agents, amphotericin B (Fungizone®) in water and ketoconazole (Nizoral®) in Methocel®, are administered at 1.0 mg/kg/day and 150 mg/kg/day, respectively.
In a primary assay, mice (10 per group) are infected with C. albicans, and receive test compounds at 50 or 150 mg/kg/day via the subcutaneous route. Animals are dosed with the test compound at 1 and 6 hour post-infection and then once daily for the next three days. Survival of mice in each group is recorded for 21 days.
Compounds which protect ≥70% of the infected animals for 14 days at a dose 150 mg/kg/day or less are viewed as active.

Botrytis cinerea = assay: Example C bean grey mold; format: in vivo; conditions: Botrytis cinerea, 24 h, 100 PPM; read-out: disease control rating, Ex. C
Method: The test compounds were dissolved in acetone in an amount equal to 6% of the final volume and then suspended at a concentration of 100 or 20 ppm in purified water containing 250 ppm of the surfactant TREM 014 (polyhydric alcohol esters). This suspension was sprayed to the point of run-off on broad bean seedlings.

Puccinia recondita = assay: Example G wheat leaf rust; format: in vivo; conditions: 100 PPM, read-out: disease control rating, Ex. G
Rhizoctonia solani = assay: Example F rice sheath blight; format: in vivo; conditions: Rhizoctonia solani, 144 h, 100 PPM; read-out: disease control rating, Ex. F
Method: The test compounds were dissolved in acetone in an amount equal to 6% of the final volume and then suspended at a concentration of 100 or 20 ppm in purified water containing 250 ppm of the surfactant TREM 014 (polyhydric alcohol esters). This suspension was sprayed to the point of run-off on rice seedlings.

Plasmorpara viticola = assay: Example I grape downy mildew; format: in vivo; conditions: read-out: disease control rating, Ex. I
Method: The test compounds were dissolved in acetone in an amount equal to 6% of the final volume and then suspended at a concentration of 100 or 20 ppm in purified water containing 250 ppm of the surfactant TREM 014 (polyhydric alcohol esters). This suspension was sprayed to the point of run-off on grape seedlings.

[4] = system: Cercosporidium personatum; assay: Example B Peanut Late Leafspot; format: in vivo; conditions: Nothopassalora personata; 100 PPM; read-out: disease control rating, Ex. B
Method: The test compounds were dissolved in acetone in an amount equal to 6% of the final volume and then suspended at a concentration of 100 or 20 ppm in purified water containing 250 ppm of the surfactant TREM 014 (polyhydric alcohol esters). This suspension was sprayed to the point of run-off on peanut seedlings.

Pyricularia oryzae = assay: whole plant or invertebrate; format: in vivo; conditions: Pyricularia oryzae, 120 h, read-out: disease control rating, Ex. E, 100 PPM
Phytophthora infestans = assay: whole plant or invertebrate; format: in vivo; conditions: Phytophthora infestans, in Solanum lycopersicum, read-out: disease control rating, Ex. H, 100 PPM
[5] = read-out: MIC values, A. fumigatus, 30°, 24 hours
[6] = read-out: MIC values, C. albicans, 30°, 24 hours
[7] = ATCC11651, 168 h, 150 mg/kg per day, day 7
[8] = ATCC11651, 336 h, 150 mg/kg per day, day 14
[9] = ATCC11651, 504 h, 150 mg/kg per day, day 21
[10] = read-out: MIC values, A. fumigatus
[11] = read-out: MIC values, C. albicans

C=C(c1ccc(F)cc1)C(O)(Cn1cncn1)c1ccc(F)cc1 (single isomer, unassigned) [1277 HCl salt]
MIC values, A. fumigatus [1]: 3.2 µg/mL | MIC values, C. albicans [2]: 0.03 µg/mL

OC(Cn1cncn1)(c1ccc(F)cc1)C1(c2ccc(F)cc2)CO1 (single isomer, unassigned) [Example 1487, 2,3-bis(4-fluorophenyl)-1-(1H-1,2,4-triazol-1-yl)-3,4-epoxy-2-butanol]
MIC [1, 5]: 6.3 µg/mL (≈ 18.3 µM) | MIC [2, 6]: 0.4 µg/mL (≈ 1.17 µM) | responders at 150 mg/kg [3, 7]: 100% | responders at 150 mg/kg [3, 8]: 100% | responders at 150 mg/kg [3, 9]: 70%

C=C(c1ccc(F)cc1)C(O)(Cn1cncn1)c1ccc(F)cc1 (stereo not shown) [1 HCl salt]
MIC values, A. fumigatus [1]: 12.5 µg/mL | MIC values, C. albicans [2]: 0.05 µg/mL

Nc1nc(=O)[nH]cc1F [5-Fluorocytosine, reference compound]
MIC [1, 5]: 5.7 ± 4 µg/mL (≈ 44.2 µM) | MIC [2, 6]: 0.14 ± 0.1 µg/mL (≈ 1.08 µM)

C=C(c1ccc(Cl)cc1)C(O)(Cn1cncn1)c1ccc(Cl)cc1Cl (stereo not shown) [26 HCl salt]
MIC values, A. fumigatus [1]: 0.4 µg/mL | MIC values, C. albicans [2]: 0.03 µg/mL

C=C(c1ccccc1Cl)C(O)(Cn1cncn1)c1ccc(Cl)cc1 (stereo not shown) [34 HCl salt]
MIC values, A. fumigatus [1]: 1.6 µg/mL | MIC values, C. albicans [2]: 0.03 µg/mL

C=C(c1ccccc1Cl)C(O)(Cn1cncn1)c1ccc(Cl)cc1 (stereo not shown) [34 salt]
% Survival ([3]; 150 mg/kg per day, day 7): 100% | % Survival ([3]; 150 mg/kg per day, day 14): 100% | % Survival ([3]; 150 mg/kg per day, day 21): 100%

C=C(c1ccccc1Cl)C(O)(Cn1cncn1)c1ccc(F)cc1F (stereo not shown) [35 HCl salt]
MIC values, A. fumigatus [1]: ≤ 0.2 µg/mL | MIC values, C. albicans [2]: 0.03 µg/mL

C=C(c1ccccc1Cl)C(O)(Cn1cncn1)c1ccc(F)cc1F (stereo not shown) [35 salt]
% Survival ([3]; 150 mg/kg per day, day 7): 100% | % Survival ([3]; 150 mg/kg per day, day 14): 100% | % Survival ([3]; 150 mg/kg per day, day 21): 70%

C[C@@H]1[C@H](O)[C@@H](C)/C=C/C=C/C=C/C=C/C=C/C=C/C=C/[C@H](O[C@@H]2O[C@H](C)[C@@H](O)[C@H](N)[C@@H]2O)C[C@@H]2O[C@](O)(C[C@@H](O)C[C@@H](O)[C@H](O)CC[C@@H](O)C[C@@H](O)CC(=O)O[C@H]1C)C[C@H](O)[C@H]2C(=O)O [Amphotericin B, reference compound]
MIC [1, 10]: 1.4 ± 0.5 µg/mL (≈ 1.52 µM) | MIC [2, 11]: 0.33 ± 0.2 µg/mL (≈ 0.357 µM) | responders at 1 mg/kg/day ([3]; ATCC11651, 168 h): 100% | responders at 1 mg/kg/day ([3]; ATCC11651, 336 h): 100% | responders at 1 mg/kg/day ([3]; ATCC11651, 504 h): 100%

C=C(c1ccc(Cl)cc1)C(O)(Cn1cncn1)c1ccc(Cl)cc1Cl (stereo not shown) [Example 26 HCl salt]
% Survival ([3]; 150 mg/kg per day, day 7): 100% | % Survival ([3]; 150 mg/kg per day, day 14, listed as 26 salt): 90% | % Survival ([3]; 150 mg/kg per day, day 21, listed as 26 salt): 80%

C=C(c1ccccc1)C(O)(Cn1cncn1)C(F)(F)C(F)(F)C(F)(F)C(F)(F)F (stereo not shown) [Example 55]
responders at 150 mg/kg ([3]; ATCC11651, 168 h): 100% | responders at 150 mg/kg ([3]; ATCC11651, 336 h): 70% | responders at 150 mg/kg ([3]; ATCC11651, 504 h): 50%

C=C(c1ccc(Br)cc1)C(O)(Cn1cncn1)c1ccc(F)cc1 (stereo not shown) [Example 85]
MIC [1, 5]: 12.5 µg/mL (≈ 32.2 µM) | MIC [2, 6]: ≤ 0.4 µg/mL | responders at 150 mg/kg [3, 7]: 100% | responders at 150 mg/kg [3, 8]: 80% | responders at 150 mg/kg [3, 9]: 70%

C=C(c1ccc(C(C)(C)C)cc1)C(O)(Cn1cncn1)c1ccc(F)cc1 (stereo not shown) [Example 114]
MIC [1, 5]: 50 µg/mL (≈ 137 µM) | MIC [2, 6]: 0.4 µg/mL (≈ 1.09 µM) | responders at 150 mg/kg [3, 7]: 70% | responders at 150 mg/kg [3, 8]: 10% | responders at 150 mg/kg [3, 9]: 10%

C=C(c1ccc(C(C)(C)C)cc1)C(O)(Cn1cncn1)c1ccc(Cl)cc1 (stereo not shown) [Example 117]
MIC [1, 5]: 100 µg/mL (≈ 262 µM) | MIC [2, 6]: 0.4 µg/mL (≈ 1.05 µM) | responders at 150 mg/kg [3, 7]: 60% | responders at 150 mg/kg [3, 8]: 0% | responders at 150 mg/kg [3, 9]: 0%

CC=C(c1ccccc1)C(O)(Cn1cncn1)c1ccc(F)cc1 (stereo not shown) [Example 286]
MIC [1, 5]: 25 µg/mL (≈ 77.3 µM) | MIC [2, 6]: 0.4 µg/mL (≈ 1.24 µM) | responders at 150 mg/kg [3, 7]: 100% | responders at 150 mg/kg [3, 8]: 50% | responders at 150 mg/kg [3, 9]: 20%

C=C(CO)C(O)(Cn1cncn1)c1ccccc1 (stereo not shown) [Example 448]
pest or weed control at 100 ppm (Botrytis cinerea): 54% | pest or weed control at 100 ppm (Puccinia recondita): 16% | pest or weed control at 100 ppm (Rhizoctonia solani): 42% | pest or weed control at 100 ppm (Plasmorpara viticola): 0% | pest or weed control at 100 ppm [4]: 0% | pest or weed control at 100 ppm (Pyricularia oryzae): 0% | pest or weed control at 100 ppm (Phytophthora infestans): 0%

C=C(c1ccc(F)cc1)C(O)(Cn1cncn1)c1ccncc1 (stereo not shown) [Example 699]
MIC [1, 5]: 100 µg/mL (≈ 322 µM) | MIC [2, 6]: 50 µg/mL (≈ 161 µM)

C=C(c1cccc(C(F)(F)F)c1)C(O)(Cn1cncn1)c1ccc(F)cc1 (stereo not shown) [Example 725]
responders at 150 mg/kg [3, 7]: 90% | responders at 150 mg/kg [3, 8]: 90% | responders at 150 mg/kg [3, 9]: 40%

C=C(c1ccc(F)cc1)C(O)(c1ccc(F)cc1)C(F)n1cncn1 (stereo not shown) [Example 1258]
MIC [1, 5]: > 100 µg/mL | MIC [2, 6]: 1.6 µg/mL (≈ 4.63 µM)

C=C(c1ccc(F)cc1)C(O)(c1ccc(F)cc1)C(F)(F)n1cncn1 (stereo not shown) [Example 1260]
MIC [1, 5]: > 100 µg/mL | MIC [2, 6]: 0.8 µg/mL (≈ 2.2 µM)

CC(=O)N1CCN(c2ccc(OCC3COC(Cn4ccnc4)(c4ccc(Cl)cc4Cl)O3)cc2)CC1 (stereo not shown) [Ketoconazole, reference compound]
MIC [1, 5]: 11 ± 5 µg/mL (≈ 20.7 µM) | MIC [2, 6]: ≤ 0.1 µg/mL | responders at 150 mg/kg [3, 7]: 100% | responders at 150 mg/kg [3, 8]: 80% | responders at 150 mg/kg [3, 9]: 50%

Clc1ccc(COC(Cn2ccnc2)c2ccc(Cl)cc2Cl)c(Cl)c1 (stereo not shown) [Miconazole, reference compound]
MIC [1, 10]: 1.3 µg/mL (≈ 3.12 µM) | MIC [2, 11]: ≤ 0.1 µg/mL

C[C@@H]1[C@H](O)[C@@H](C)/C=C/C=C/CC/C=C/C=C/C=C/C=C/C(O[C@H]2O[C@H](C)[C@@H](O)[C@H](N)[C@@H]2O)CC2O[C@](O)(CC(O)C(O)CCC(O)CC(O)CC(O)CC(=O)O[C@H]1C)CC(O)C2C(=O)O (stereo partly shown) [Nystatin, reference compound]
MIC values, A. fumigatus [1]: 3.0 ± 1.0 µg/mL (≈ 3.24 µM) | MIC values, C. albicans [2]: 1.3 ± 0 µg/mL (≈ 1.4 µM)
